Data on three compounds can be found in article PMC6685669, “Mapping the Structural Path for Allosteric Inhibition of a Short-Form ATP Phosphoribosyltransferase by Histidine” (Biochemistry, 2019).

A word on the inhibition: it is the change of the read-out against control, counted positive when it falls. The term IC50 denotes the concentration at which inhibition is half-maximal. For orientation: Ki means a measure of affinity in units of concentration, obtained from inhibition or displacement. The low end stands for tighter binding, the high end for weaker binding.

The structures appear in SMILES notation.

Experiment [1] deals with T1, PaATPPRT (Psychrobacter arcticus, UniProt Q4FQF7+Q4FTX3).
T1 construct: made in house
T1 sequence (Q4FTX3 whole entry): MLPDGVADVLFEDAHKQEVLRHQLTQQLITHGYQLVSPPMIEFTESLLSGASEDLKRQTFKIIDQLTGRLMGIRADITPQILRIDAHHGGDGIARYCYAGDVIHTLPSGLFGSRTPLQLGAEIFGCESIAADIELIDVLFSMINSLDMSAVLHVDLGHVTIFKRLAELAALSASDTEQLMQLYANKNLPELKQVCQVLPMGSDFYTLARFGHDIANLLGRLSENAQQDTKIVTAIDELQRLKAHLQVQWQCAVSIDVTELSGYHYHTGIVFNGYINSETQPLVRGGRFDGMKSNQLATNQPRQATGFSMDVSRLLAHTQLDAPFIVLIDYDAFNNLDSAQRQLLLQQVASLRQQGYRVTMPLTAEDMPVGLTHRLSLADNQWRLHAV
T1 sequence (Q4FQF7 whole entry): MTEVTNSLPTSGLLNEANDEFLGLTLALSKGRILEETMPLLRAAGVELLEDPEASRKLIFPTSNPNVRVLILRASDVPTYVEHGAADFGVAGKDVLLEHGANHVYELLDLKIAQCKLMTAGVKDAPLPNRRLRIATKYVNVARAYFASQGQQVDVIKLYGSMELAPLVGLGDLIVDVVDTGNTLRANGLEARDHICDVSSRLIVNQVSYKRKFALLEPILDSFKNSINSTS
Format: biochemical. To be noted: ADP replacing ATP as substrate, 20 °C.
Protocol: Initial rates for PaATPPRT (0.28 μM) were determined at saturating concentrations of one substrate and varying concentrations of the other, either ADP (0.4–5.6 mM) or PRPP (0.1–2.0 mM).
Kinetic and DSF data were analyzed by the nonlinear regression function of SigmaPlot 13 (SPSS Inc.). Data points and error bars in graphs are represented as means ± the standard error, and kinetic and equilibrium constants are presented as means ± the fitting error. Substrate saturation data were fitted to eq 1. […]

In another experiment the target is T2, Y263F-PaATPPRT (Psychrobacter arcticus, UniProt Q4FQF7+Q4FTX3, Y263F).
T2 construct: made in house
T2 sequence (Q4FQF7 whole entry): as above
T2 sequence (Q4FTX3 whole entry Y263F): as the sequence (Q4FTX3 whole entry) above, with Y263F counted along it
Put plainly: Y263F-PaHisZ-based PaATPPRT activity assay, initial rates with and without histidine. The format is biochemical. An excerpt:
Replacement of tyrosine for phenylalanine at position 263 of PaHisZ was accomplished by the method of Liu and Naismith,[29] with primers 5′-[…]-3′ and 5′-[…]-3′. Successful mutation was confirmed by DNA sequencing (Eurofins Genomics). Y263F-PaHisZ was expressed and purified by the same protocol reported for wild-type (WT) PaHisZ.[20] ESI/MS analysis of the protein yielded a mass of 43068.9, exactly what would be expected by the loss of a hydroxyl group when compared with the mass of WT-PaHisZ.[20] Y263F-PaHisZ-based PaATPPRT was assayed for catalytic activity under initial rate conditions at 20 °C in the presence of 5.6 mM ATP and 2 mM PRPP and in the presence or absence of 320 μM histidine, along with other reaction components exactly as described for WT-PaATPPRT. Measurements were carried out in duplicate.

For the next experiment, the target named is T3, PaHisZ (Psychrobacter arcticus, UniProt Q4FTX3).
T3 construct: made in house
T3 sequence (Q4FTX3 whole entry): as the sequence (Q4FTX3 whole entry) above
Put plainly: Differential scanning fluorimetry (DSF), thermal denaturation of PaHisZ. The format is binding. As for the experimental part: DSF measurements (λex = 490 nm; λem = 610 nm) were performed in 96-well plates on a Stratagene Mx3005p instrument. Thermal denaturation of 9.4 μM PaHisZ was assayed (50 μL) in the presence of several histidine concentrations (0–8 mM) in 100 mM tricine, 100 mM KCl, 4 mM DTT, and 15 mM MgCl2 (pH 8.5). Sypro Orange (5×) (Invitrogen) was added to all wells. Thermal denaturation curves were recorded over a temperature range of 25–65 °C with 1 °C min^–1 increments. Control curves without the enzyme and were subtracted from curves with the enzyme. All measurements were carried out in quintuplicate.
Kinetic and DSF data were analyzed by the nonlinear regression function of SigmaPlot 13 (SPSS Inc.). Data points and error bars in graphs are represented as means ± the standard error, and kinetic and equilibrium constants are presented as means ± the fitting error. Substrate saturation data were fitted to eq 1. Inhibition data at fixed substrate concentrations were fitted to eq 2, and inhibition mechanism data were fitted to eq 3. […]
In general terms: In DSF a fluorescence change marks the thermal transition of the protein.

For the next experiment, the system named is PaHisGS. Set-up: method as in PMID 28092443. To be noted: PaHisGS in the absence of PaHisZ; cited from earlier work.
The target of experiment [2] is T1, PaATPPRT. Kind of experiment: Rapid kinetics (stopped-flow), approach to steady state in the PaATPPRT reaction. Format: biochemical. As for the experimental part:
Rapid kinetics experiments were carried out under multiple-turnover conditions by monitoring the increase in absorbance at 290 nm upon PRATP formation at 20 °C in an Applied Photophysics SX-20 stopped-flow spectrophotometer outfitted with a 5 μL mixing cell (0.5 cm path length and 0.9 ms dead time). In all experiments, each syringe contained 100 mM tricine (pH 8.5), 100 mM KCl, 4 mM DTT, 15 mM MgCl2, and 10 μM MtPPase. For the approach to steady state in the PaATPPRT reaction, one syringe carried 38 μM PaATPPRT, 4 mM PRPP, and either 0 or 60 μM histidine, while the other carried 7 mM ATP and either 0 or 60 μM histidine. Reaction was triggered by rapidly mixing 55 μL from each syringe. The increase in absorbance was monitored in a split-time base for 1 s, with 2500 data points collected before 0.2 s and 2500 in the following 0.8 s. At least four traces were acquired for each reaction, and controls lacked PRPP. For initial rates of PaATPPRT and PaHisGS reactions, one syringe carried either 2–4 μM PaHisGS or 4 μM PaATPPRT, 4 mM PRPP, and either 0 or 1.28 mM histidine, while the other carried 11.2 mM ATP. Reaction was triggered by rapidly mixing 55 μL from each syringe. The increase in absorbance was monitored in a linear-time base for 10 s. At least four traces were acquired for each reaction, with 1000 data points collected per trace. Controls lacked PRPP.

Experiment [3] concerns the target T1, PaATPPRT. Kind of experiment: PaATPPRT activity assay, initial rates (absorbance at 290 nm, PRATP formation), inhibition by histidine. The format is biochemical. Particulars: for Kii: linear regression of intercept replot of individually fitted double-reciprocal curves. On the procedure: All assays were performed under initial rate conditions in the forward direction at 20 °C, in the presence or absence of histidine, as previously described[20] by monitoring the increase in absorbance at 290 nm due to the formation of PRATP (ε290 = 3600 M^–1 cm^–1)[23] in 1 cm path length quartz cuvettes (Hellma) in a Shimadzu UV-2600 spectrophotometer. Unless stated otherwise, for PaHisGS activity, the PaHisGS concentration was typically 2 μM, and for PaATPPRT activity, PaHisGS and PaHisZ concentrations were 0.28 and 15 μM, respectively. Reactions were started by addition of PRPP. Control reaction mixtures lacked either ATP, PRPP, PaHisGS, or PaHisZ. […] Initial rates were also measured with saturating concentrations of both substrates in the presence or absence of 4 mM TIH. All kinetic measurements were performed at least in duplicate unless stated otherwise.
The half-maximal inhibitory concentration of histidine was determined by measuring the initial rates for PaATPPRT (0.24 μM) in the presence of 5.6 mM ATP (or 5.6 mM ADP), 2 mM PRPP, and varying concentrations of histidine (0–320 μM). The inhibition mechanism was investigated by measuring the initial rates for PaATPPRT (0.28 μM) at saturating concentrations of one substrate and varying concentrations of the other, either ATP (0.2–2.8 mM) or PRPP (0.1–2.0 mM), with different concentrations of histidine (0–10 μM). In some instances, the lowest-concentration data point was an outlier in the double-reciprocal plot and was excluded from the fit.
Kinetic and DSF data were analyzed by the nonlinear regression function of SigmaPlot 13 (SPSS Inc.). Data points and error bars in graphs are represented as means ± the standard error, and kinetic and equilibrium constants are presented as means ± the fitting error. Substrate saturation data were fitted to eq 1. Inhibition data at fixed substrate concentrations were fitted to eq 2, and inhibition mechanism data were fitted to eq 3. In eqs 1–3, v is the initial rate, S is the concentration of the varying substrate, kcat is the steady-state turnover number, KM is the apparent Michaelis constant, ET is total enzyme concentration, vi is the initial rate in the presence of an inhibitor, IC50 is the half-maximal inhibitory concentration, h is the Hill slope, Kis is the slope inhibition constant, and Kii is the intercept inhibition constant. DSF thermal denaturation data were fitted to eq 4,[30] and PaHisZ–histidine complex equilibrium dissociation data were fitted to eq 5. In eqs 4 and 5, FU is the fraction unfolded, T is the temperature in degrees Celsius, Tm is the melting temperature, c is the slope of the transition region, LL and UL are folded and unfolded baselines, respectively, Tm0 is the Tm in the absence of histidine, Tm∞ is the Tm at an infinite histidine concentration, H is the histidine concentration, and KD is the apparent equilibrium dissociation constant for the PaHisZ–histidine complex.

The mark [4] stands for this setting: ATP and histidine (60 μM in syringe) rapidly mixed with PaATPPRT preincubated with PRPP.
Where [5] appears, read: ATP rapidly mixed with PaATPPRT preincubated with PRPP and histidine (60 μM in syringe).

Consider `Nc1ncnc2c1ncn2[C@@H]1O[C@H](COP(=O)(O)OP(=O)(O)O)[C@@H](O)[C@H]1O` [ADP, adenosine 5′-diphosphate], for which the kcat at PaATPPRT [1] worked out at 2.6 ± 0.4 s^–1.
Consider `N[C@@H](Cc1c[nH]cn1)C(=O)O` [Histidine, L-histidine], for which the “vi/v0 (ratio of initial rates in presence and absence of inhibitor)” value on Y263F-PaATPPRT (320 μM histidine, 5.6 mM ATP, 2 mM PRPP, 20 °C) was 0.250 ± 0.001; at PaATPPRT [3] (WT-PaATPPRT, 320 μM histidine, 5.6 mM ATP, 2 mM PRPP, 20 °C), 0.070 ± 0.004. Moreover, on Y263F-PaATPPRT (320 μM histidine, from vi/v0 of mutant and WT), the “susceptibility to inhibition, Y263F-PaATPPRT less susceptible than WT-PaATPPRT” value is given as > 3 fold. In addition, at Y263F-PaATPPRT (read-out: enzyme activity lost due to histidine inhibition), the inhibition at 320 µM amounted to 75%. The Kd on PaHisZ (free PaHisZ 9.4 μM, Tm dependence on histidine 0–8 mM, fit to eq 5, read-out: KD (apparent equilibrium dissociation constant, PaHisZ–histidine complex)) turned out to be 2800 ± 800 µM. Moreover, at PaHisZ (free PaHisZ, histidine 0–8 mM), the “effect on Tm of PaHisZ” value is listed as “increases”. The “sensitivity of PaHisGS to histidine” value in the experiment with PaHisGS was “insensitive”. The “amplitude of the burst phase” value at PaATPPRT [2] (setting [4]) came to 3.49 ± 0.01 µM. Further, the steady-state rate on PaATPPRT [2] (setting [4]) turned out to be 7.56 ± 0.01 μM s^–1; on PaATPPRT [2] (setting [5]), 7.83 ± 0.01 μM s^–1. Moreover, the burst amplitude at PaATPPRT [2] (setting [5]) was 0.53 ± 0.01 µM. In addition, the “h (Hill slope)” value on PaATPPRT [3] (5.6 mM ATP, 2 mM PRPP, 20 °C, fit to eq 2) came to 1.30 ± 0.04; at PaATPPRT [3] (ADP (5.6 mM) as the substrate, 2 mM PRPP), 1.32 ± 0.09. Moreover, the IC50 amounted to 35.5 ± 0.8 µM against PaATPPRT [3] (IC50, 5.6 mM ATP, 2 mM PRPP, 20 °C, fit to eq 2) and 31 ± 1 µM on PaATPPRT [3] (IC50, ADP (5.6 mM) as the substrate, 2 mM PRPP). The Ki on PaATPPRT [3] (Kis (slope inhibition constant), against ATP, global fit to eq 3) was 56 ± 25 µM; on PaATPPRT [3] (Kis (slope inhibition constant), against PRPP, global fit to eq 3), 22 ± 6 µM; at PaATPPRT [3] (Kis, against ATP, linear regression of slope replot of individually fitted double-reciprocal curves), 60 µM; at PaATPPRT [3] (Kis, against PRPP, linear regression of slope replot of individually fitted double-reciprocal curves), 30 µM. For the same compound, the “Kii (intercept inhibition constant)” value came out at 36 ± 5 µM on PaATPPRT [3] (against ATP, global fit to eq 3) and 38 ± 7 µM on PaATPPRT [3] (against PRPP, global fit to eq 3). In addition, the Kii at PaATPPRT [3] (against ATP) turned out to be 40 µM; on PaATPPRT [3] (against PRPP) it was 26 µM. Further, the inhibition mechanism result against PaATPPRT [3] (against both substrates (PRPP and ATP)) is given as “noncompetitive”.
As for `N[C@@H](Cc1cccs1)C(=O)O` [TIH, 3-(2-thienyl)-L-alanine], the “effect on PaATPPRT catalysis” value at PaATPPRT [3] (4 mM TIH, saturating concentrations of both substrates) is reported as “no effect”.
